ChEMBL document CHEMBL1152667, “Synthesis and radiopharmacological investigation of 3-[4'-[(18)F]fluorobenzylidene]indolin-2-one as possible tyrosine kinase inhibitor” (Bioorg Med Chem, 2009)

What was measured:
Kidney = test: Biodistribution in Wistar rat kidney assessed as standard uptake value at 1.7 MBq, iv administered as single dose measured after 1 min post-injection by gamma counting; assay type: ADME, organism-based; settings: in vivo
[1] = Metabolic stability in Wistar rat blood assessed as compound remaining at 30 MBq, iv after 20 mins by radio-HPLC analysis; assay type: ADME, organism-based; settings: read-out: Stability
Pancreas [2] = test: Biodistribution in Wistar rat pancreas at 1.7 MBq, iv administered as single dose measured after 5 mins post-injection by gamma counting; assay type: ADME, organism-based; settings: in vivo
[3] = Biodistribution in Wistar rat urine at 1.7 MBq, iv administered as single dose measured after 30 mins post-injection by gamma counting; assay type: ADME, organism-based; settings: in vivo, 0.5 h
[4] = Ratio of drug level in liver to blood in Wistar rat at 1.7 MBq, iv administered as single dose measured after 60 mins post-injection; assay type: ADME, organism-based
Liver [5] = test: Biodistribution in Wistar rat liver assessed as standard uptake value at 1.7 MBq, iv administered as single dose measured after 30 mins post-injection by gamma counting; assay type: ADME, organism-based; settings: in vivo, 0.5 h
Heart [6] = test: Biodistribution in Wistar rat heart assessed as standard uptake value at 1.7 MBq, iv administered as single dose measured after 1 min post-injection by gamma counting; assay type: ADME, organism-based; settings: in vivo
[7] = Biodistribution in Wistar rat thyroid gland at 1.7 MBq, iv administered as single dose measured after 5 mins post-injection by gamma counting; assay type: ADME, organism-based; settings: in vivo
Femur [8] = test: Biodistribution in Wistar rat femur at 1.7 MBq, iv administered as single dose measured after 1 min post-injection by gamma counting; assay type: ADME, organism-based; settings: in vivo
Lung [9] = test: Biodistribution in Wistar rat lung at 1.7 MBq, iv administered as single dose measured after 1 min post-injection by gamma counting; assay type: ADME, organism-based; settings: in vivo
Intestine [10] = test: Biodistribution in Wistar rat intestine at 1.7 MBq, iv administered as single dose measured after 60 mins post-injection by gamma counting; assay type: ADME, organism-based; settings: in vivo, 1 h
Liver [11] = test: Biodistribution in Wistar rat liver at 1.7 MBq, iv administered as single dose measured after 10 mins post-injection by gamma counting; assay type: ADME, organism-based; settings: in vivo
Spleen [12] = test: Biodistribution in Wistar rat spleen at 1.7 MBq, iv administered as single dose measured after 60 mins post-injection by gamma counting; assay type: ADME, organism-based; settings: in vivo, 1 h
Liver [13] = test: Biodistribution in Wistar rat liver at 1.7 MBq, iv administered as single dose measured after 1 min post-injection by gamma counting; assay type: ADME, organism-based; settings: in vivo
Liver [14] = test: Biodistribution in Wistar rat liver at 1.7 MBq, iv administered as single dose measured after 5 mins post-injection by gamma counting; assay type: ADME, organism-based; settings: in vivo
Brain = test: Biodistribution in Wistar rat brain at 1.7 MBq, iv administered as single dose measured after 1 min post-injection by gamma counting; assay type: ADME, organism-based; settings: in vivo
[15] = Biodistribution in Wistar rat adipose tissue assessed as standard uptake value at 1.7 MBq, iv administered as single dose measured after 30 mins post-injection by gamma counting; assay type: ADME, organism-based; settings: in vivo, 0.5 h
[16] = Ratio of drug level in pancreas to blood in Wistar rat at 1.7 MBq, iv administered as single dose measured after 60 mins post-injection; assay type: ADME, organism-based
Intestine [17] = test: Biodistribution in Wistar rat intestine at 1.7 MBq, iv administered as single dose measured after 1 min post-injection by gamma counting; assay type: ADME, organism-based; settings: in vivo
[18] = Metabolic stability in Wistar rat blood assessed as compound remaining at 0.5 MBq after 60 mins by radio-HPLC analysis; assay type: ADME, tissue-based; settings: read-out: Stability
[19] = Phase 2 elimination half life in Wistar rat at 30 MBq, iv by radio-HPLC analysis; assay type: ADME, organism-based; settings: in vivo, read-out: beta t1/2 (converted)
Thymus [20] = test: Biodistribution in Wistar rat thymus at 1.7 MBq, iv administered as single dose measured after 60 mins post-injection by gamma counting; assay type: ADME, organism-based; settings: in vivo, 1 h
Spleen [21] = test: Biodistribution in Wistar rat spleen assessed as standard uptake value at 1.7 MBq, iv administered as single dose measured after 1 min post-injection by gamma counting; assay type: ADME, organism-based; settings: in vivo
[22] = Ratio of drug level in adrenal gland to blood in Wistar rat at 1.7 MBq, iv administered as single dose measured after 60 mins post-injection; assay type: ADME, organism-based
[23] = Biodistribution in Wistar rat adipose tissue assessed as standard uptake value at 1.7 MBq, iv administered as single dose measured after 5 mins post-injection by gamma counting; assay type: ADME, organism-based; settings: in vivo
Femur [24] = test: Biodistribution in Wistar rat femur assessed as standard uptake value at 1.7 MBq, iv administered as single dose measured after 10 mins post-injection by gamma counting; assay type: ADME, organism-based; settings: in vivo
Harderian gland = test: Biodistribution in Wistar rat harderian gland at 1.7 MBq, iv administered as single dose measured after 60 mins post-injection by gamma counting; assay type: ADME, organism-based; settings: in vivo, 1 h
[25] = Biodistribution in Wistar rat hair/skin assessed as standard uptake value at 1.7 MBq, iv administered as single dose measured after 10 mins post-injection by gamma counting; assay type: ADME, organism-based; settings: in vivo
Adrenal gland = test: Biodistribution in Wistar rat adrenal gland assessed as standard uptake value at 1.7 MBq, iv administered as single dose measured after 10 mins post-injection by gamma counting; assay type: ADME, organism-based; settings: in vivo
Lung [26] = test: Biodistribution in Wistar rat lung at 1.7 MBq, iv administered as single dose measured after 30 mins post-injection by gamma counting; assay type: ADME, organism-based; settings: in vivo, 0.5 h
Lung [27] = test: Biodistribution in Wistar rat lung at 1.7 MBq, iv administered as single dose measured after 5 mins post-injection by gamma counting; assay type: ADME, organism-based; settings: in vivo
[28] = Biodistribution in Wistar rat urine at 1.7 MBq, iv administered as single dose measured after 5 mins post-injection by gamma counting; assay type: ADME, organism-based; settings: in vivo
Pancreas [29] = test: Biodistribution in Wistar rat pancreas assessed as standard uptake value at 1.7 MBq, iv administered as single dose measured after 30 mins post-injection by gamma counting; assay type: ADME, organism-based; settings: in vivo, 0.5 h
Heart [30] = test: Biodistribution in Wistar rat heart at 1.7 MBq, iv administered as single dose measured after 30 mins post-injection by gamma counting; assay type: ADME, organism-based; settings: in vivo, 0.5 h
Liver [31] = test: Biodistribution in Wistar rat liver at 1.7 MBq, iv administered as single dose measured after 60 mins post-injection by gamma counting; assay type: ADME, organism-based; settings: in vivo, 1 h
[32] = Biodistribution in Wistar rat hair/skin assessed as standard uptake value at 1.7 MBq, iv administered as single dose measured after 60 mins post-injection by gamma counting; assay type: ADME, organism-based; settings: in vivo, 1 h
Thymus [33] = test: Biodistribution in Wistar rat thymus assessed as standard uptake value at 1.7 MBq, iv administered as single dose measured after 1 min post-injection by gamma counting; assay type: ADME, organism-based; settings: in vivo
[34] = Biodistribution in Wistar rat urine at 1.7 MBq, iv administered as single dose measured after 10 mins post-injection by gamma counting; assay type: ADME, organism-based; settings: in vivo
Pancreas [35] = test: Biodistribution in Wistar rat pancreas assessed as standard uptake value at 1.7 MBq, iv administered as single dose measured after 5 mins post-injection by gamma counting; assay type: ADME, organism-based; settings: in vivo
[36] = Metabolic stability in Wistar rat blood assessed as compound remaining at 30 MBq, iv after 1 min by radio-HPLC analysis; assay type: ADME, organism-based; settings: read-out: Stability
Liver [37] = test: Biodistribution in Wistar rat liver assessed as standard uptake value at 1.7 MBq, iv administered as single dose measured after 10 mins post-injection by gamma counting; assay type: ADME, organism-based; settings: in vivo
Lung [38] = test: Biodistribution in Wistar rat lung assessed as standard uptake value at 1.7 MBq, iv administered as single dose measured after 60 mins post-injection by gamma counting; assay type: ADME, organism-based; settings: in vivo, 1 h
[39] = Ratio of drug level in brain to blood in Wistar rat at 1.7 MBq, iv administered as single dose measured after 60 mins post-injection; assay type: ADME, organism-based

## O=C1Nc2ccccc2/C1=C/c1ccc([18F])cc1
Kidney
  SUV: 3.36%
[1]
  remaining at 20 min: 12%
Pancreas [2]
  Drug uptake: 0.38 %ID
[3]
  Drug uptake: 11.23 %ID
[4]
  Kp at 1 h: 7.9
Liver [5]
  SUV: 1.68%
Heart [6]
  SUV: 2.52%
[7]
  Drug uptake: 0.08 %ID
Femur [8]
  Drug uptake: 0.44 %ID
Lung [9]
  Drug uptake: 2.68 %ID
Intestine [10]
  Drug uptake: 30.16 %ID
Liver [11]
  Drug uptake: 17.84 %ID
Spleen [12]
  Drug uptake: 0.04 %ID
Liver [13]
  Drug uptake: 17.16 %ID
Liver [14]
  Drug uptake: 18.4 %ID
Brain
  Drug uptake: 3.09 %ID
[15]
  SUV: 1.17%
[16]
  Kp at 1 h: 2.1
Intestine [17]
  Drug uptake: 8.84 %ID
[18]
  remaining at 1 h, 0.5 MBq: 84%
[19]
  half-life: 4.45 min
Thymus [20]
  Drug uptake: 0.05 %ID
Spleen [21]
  SUV: 0.98%
[22]
  Kp at 1 h: 8.9
[23]
  SUV: 1.21%
Femur [24]
  SUV: 0.51%
Harderian gland
  Drug uptake: 0.06 %ID
[25]
  SUV: 0.74%
Adrenal gland
  SUV: 3.2%
Lung [26]
  Drug uptake: 0.33 %ID
Lung [27]
  Drug uptake: 1.02 %ID
[28]
  Drug uptake: 2.39 %ID
Pancreas [29]
  SUV: 0.55%
Heart [30]
  Drug uptake: 0.18 %ID
Liver [31]
  Drug uptake: 5.98 %ID
[32]
  SUV: 0.19%
Thymus [33]
  SUV: 1.1%
[34]
  Drug uptake: 6.98 %ID
Pancreas [35]
  SUV: 1.66%
[36]
  remaining at 1 min: 70%
Liver [37]
  SUV: 3.03%
Lung [38]
  SUV: 0.27%
[39]
  Kp at 1 h: 3.2
